# Measured values published in patent US8652999B1, “Herbicidal compositions comprising 4-amino-3-chloro-5-fluoro-6-(4-chloro-2-fluoro-3-methoxyphenyl)pyridine-2-carboxylic acid or a derivative thereof and a sulfonylaminocarbonyltriazolinone” (Dow AgroSciences, LLC., priority 2012, dated 2014).
# Columns and labels:
# Assay type in all cases: in vivo
# Veronica persica (VERPE) = assay: Postemergence herbicidal activity, greenhouse, VERPE; conditions: foliar, 20-22 days
# Protocol: (§1) Evaluation of Postemergence Herbicidal Activity of Mixtures in Cereal Crops
# (§2) Seeds of the desired test plant species were planted in Sun Gro MetroMix® 306 planting mixture, which typically has a pH of 6.0 to 6.8 and an organic matter content of about 30 percent, in plastic pots with a surface area of 103.2 square centimeters (cm^2). […] The plants were grown for 7-36 days in a greenhouse with an approximate 14 hour photoperiod which was maintained at about 18° C. during the day and 17° C. during the night. Nutrients and water were added on a regular basis and supplemental lighting was provided with overhead metal halide 1000-Watt lamps as necessary. The plants were employed for testing when they reached the second or third true leaf stage.
# (§3) Treatments consisted of the benzyl ester of the compound of formula (I) (Compound A as listed in Tables 1-8) and a second cereal herbicide alone and in combination. […] The concentrated stock solutions were diluted to 1.5 mg ai/mL with the addition of 2 volumes of an aqueous mixture containing acetone, water, isopropyl alcohol, DMSO, Agri-dex crop oil concentrate, and Triton® X-77 surfactant in a 64.7:26.0:6.7:2.0:0.7:0.01 v/v ratio. A dilution solution was prepared by mixing 1 volume of 97:3 v/v acetone/DMSO and 2 volumes of an aqueous mixture containing acetone, water, isopropyl alcohol, DMSO, Agri-dex crop oil concentrate, and Triton® X-77 surfactant in a 64.7:26.0:6.7:2.0:0.7:0.01 v/v ratio. Compound requirements are based upon a 12 mL application volume at a rate of 187 liters per hectare (L/ha). […] Formulated compounds were applied to the plant material with an overhead Mandel track sprayer equipped with 8002E nozzles calibrated to deliver 187 L/ha over an application area of 0.503 square meters (m^2) at a spray height of 18 inches (43 cm) above average plant canopy. Control plants were sprayed in the same manner with the solvent blank.
# (§4) The treated plants and control plants were placed in a greenhouse as described above and watered by sub-irrigation to prevent wash-off of the test compounds. After 20-22 days, the condition of the test plants as compared with that of the control plants was determined visually and scored on a scale of 0 to 100 percent where 0 corresponds to no injury and 100 corresponds to complete kill.
# (§5) Colby's equation was used to determine the herbicidal effects expected from the mixtures (Colby, S. R. 1967. Calculation of the synergistic and antagonistic response of herbicide combinations. Weeds 15:20-22.). Specifically, the following equation was used to calculate the expected activity of mixtures containing two active ingredients, A and B: Expected=A+B−(A×B/100) • A=observed efficacy of active ingredient A at the same concentration as used in the mixture. • B=observed efficacy of active ingredient B at the same concentration as used in the mixture.
# Stellaria media (STEME) = assay: Postemergence herbicidal activity, greenhouse, STEME; conditions: foliar, 20-22 days
# Protocol: as §1, §2, §3, §4, §5
# [1] = test system: Matricaria chamomila (MATCH); assay: Postemergence herbicidal activity, greenhouse, MATCH; conditions: foliar, 20-22 days
# Protocol: as §1, §2, §3, §4, §5
# Cirsium arvense (CIRAR) = assay: Postemergence herbicidal activity, greenhouse, CIRAR; conditions: foliar, 20-22 days
# Protocol: as §1, §2, §3, §4, §5
# [2] = test system: Alopecurus myosuroides (ALOMY); assay: Postemergence herbicidal activity, greenhouse, ALOMY; conditions: foliar, 20-22 days
# Protocol: as §1, §2, §3, §4, §5
# [3] = test system: Apera spica-venti (APESV); assay: Postemergence herbicidal activity, greenhouse, APESV; conditions: foliar, 20-22 days
# Protocol: as §1, §2, §3, §4, §5
# [4] = test system: Lolium multiflorum subsp. gaudini (LOLMG); assay: Postemergence herbicidal activity, greenhouse, LOLMG; conditions: foliar, 20-22 days
# Protocol: as §1, §2, §3, §4, §5
# [5] = test system: Triticum aestivum (TRZAW); assay: Postemergence herbicidal activity, greenhouse, TRZAW; conditions: foliar, 20-22 days
# Protocol: as §1, §2, §3, §4, §5
# Papaver rhoeas (PAPRH) = assay: Postemergence herbicidal activity, greenhouse, PAPRH; conditions: foliar, 20-22 days
# Protocol: as §1, §2, §3, §4, §5
# Salsola tragus (SASKR) = assay: Postemergence herbicidal activity, greenhouse, SASKR; conditions: foliar, 20-22 days
# Protocol: as §1, §2, §3, §4, §5
# Viola tricolor (VIOTR) = assay: Postemergence herbicidal activity, greenhouse, VIOTR; conditions: foliar, 20-22 days
# Protocol: as §1, §2, §3, §4, §5
# Lamium purpureum (LAMPU) = assay: Postemergence herbicidal activity, greenhouse, LAMPU; conditions: Propoxycarbazone-Na 15 g/ha; foliar; 20-22 days
# Protocol: as §1, §2, §3, §4
# (§6) Colby's equation was used to determine the herbicidal effects expected from the mixtures (Colby, S. R. 1967. Calculation of the synergistic and antagonistic response of herbicide combinations. Weeds 15:20-22.). […]
# Setaria viridis (SETVI) = assay: Postemergence herbicidal activity, greenhouse, SETVI; conditions: foliar, 20-22 days
# Protocol: as §1, §2, §3, §4, §6
# Kochia scoparia (KCHSC) = assay: Postemergence herbicidal activity, greenhouse, KCHSC; conditions: foliar, 20-22 days
# Protocol: as §1, §2, §3, §4, §5
# [6] = Propoxycarbazone-Na 7.5 g ai/ha
smiles,measurement,setting,value
"COc1nn(C(=O)NS(=O)(=O)c2ccccc2OC(F)(F)F)c(=O)n1C [Flucarbazone-Na, 4,5-dihydro-3-methoxy-4-methyl-5-oxo-N-[[2-(trifluoromethoxy)phenyl]sulfonyl]-1H-1,2,4-triazole-1-carboxamide]",VERPE Obs,Veronica persica (VERPE); Flucarbazone-Na 3.75 g ai/ha,0%
same,VERPE Obs,Veronica persica (VERPE); Flucarbazone-Na 7.5 g ai/ha,0%
same,VERPE Obs,Veronica persica (VERPE); Flucarbazone-Na 7.5 g/ha,0%
same,STEME Obs,Stellaria media (STEME); Flucarbazone-Na 3.75 g ai/ha,3%
same,STEME Obs,Stellaria media (STEME); Flucarbazone-Na 7.5 g ai/ha,7%
same,STEME Obs,Stellaria media (STEME); Flucarbazone-Na 7.5 g/ha,60%
same,MATCH Obs,[1]; Flucarbazone-Na 3.75 g ai/ha,10%
same,MATCH Obs,[1]; Flucarbazone-Na 7.5 g ai/ha,10%
same,MATCH Obs,[1]; Flucarbazone-Na 7.5 g/ha,30%
same,CIRAR Obs,Cirsium arvense (CIRAR); Flucarbazone-Na 7.5 g/ha,50%
same,ALOMY Obs,[2]; Flucarbazone-Na 3.75 g/ha,8%
same,ALOMY Obs,[2]; Flucarbazone-Na 7.5 g/ha,17%
same,APESV Obs,[3]; Flucarbazone-Na 3.75 g/ha,33%
same,APESV Obs,[3]; Flucarbazone-Na 7.5 g/ha,75%
same,LOLMG Obs,[4]; Flucarbazone-Na 3.75 g/ha,0%
same,LOLMG Obs,[4]; Flucarbazone-Na 7.5 g/ha,0%
same,TRZAW Obs,[5]; Flucarbazone-Na 3.75 g ai/ha,2%
same,TRZAW Obs,[5]; Flucarbazone-Na 7.5 g ai/ha,7%
same,PAPRH Obs,Papaver rhoeas (PAPRH); Flucarbazone-Na 3.75 g ai/ha,0%
same,PAPRH Obs,Papaver rhoeas (PAPRH); Flucarbazone-Na 7.5 g ai/ha,0%
same,SASKR Obs,Salsola tragus (SASKR); Flucarbazone-Na 3.75 g ai/ha,10%
same,SASKR Obs,Salsola tragus (SASKR); Flucarbazone-Na 7.5 g ai/ha,7%
same,VIOTR Obs,Viola tricolor (VIOTR); Flucarbazone-Na 3.75 g ai/ha,7%
same,VIOTR Obs,Viola tricolor (VIOTR); Flucarbazone-Na 7.5 g ai/ha,7%
"CCCOc1nn(C(=O)NS(=O)(=O)c2ccccc2C(=O)OC)c(=O)n1C [Propoxycarbazone-Na, methyl 2-[[[(4,5-dihydro-4-methyl-5-oxo-3-propoxy-1H-1,2,4-triazol-1-yl)-carbonyl]amino]sulfonyl]benzoate]",STEME Obs,Stellaria media (STEME); [6],12%
same,STEME Obs,Stellaria media (STEME); Propoxycarbazone-Na 15 g ai/ha,10%
same,STEME Obs,Stellaria media (STEME); Propoxycarbazone-Na 15 g/ha,45%
same,MATCH Obs,[1]; [6],13%
same,MATCH Obs,[1]; Propoxycarbazone-Na 15 g ai/ha,20%
same,CIRAR Obs,Cirsium arvense (CIRAR); Propoxycarbazone-Na 15 g/ha,65%
same,ALOMY Obs,[2]; Propoxycarbazone-Na 7.5 g ha,10%
same,ALOMY Obs,[2]; Propoxycarbazone-Na 15 g ha,43%
same,APESV Obs,[3]; Propoxycarbazone-Na 7.5 g ha,17%
same,APESV Obs,[3]; Propoxycarbazone-Na 15 g ha,23%
same,LOLMG Obs,[4]; Propoxycarbazone-Na 7.5 g ha,3%
same,LOLMG Obs,[4]; Propoxycarbazone-Na 15 g ha,20%
same,TRZAW Obs,[5]; [6],8%
same,TRZAW Obs,[5]; Propoxycarbazone-Na 15 g ai/ha,5%
same,PAPRH Obs,Papaver rhoeas (PAPRH); [6],18%
same,PAPRH Obs,Papaver rhoeas (PAPRH); Propoxycarbazone-Na 15 g ai/ha,23%
same,VIOTR Obs,Viola tricolor (VIOTR); [6],13%
same,VIOTR Obs,Viola tricolor (VIOTR); Propoxycarbazone-Na 15 g ai/ha,23%
same,LAMPU Obs,Lamium purpureum (LAMPU),0%
same,SETVI Obs,Setaria viridis (SETVI); Propoxycarbazone-Na 7.5 g ha,0%
same,SETVI Obs,Setaria viridis (SETVI); Propoxycarbazone-Na 15 g ha,0%
same,KCHSC Obs,Kochia scoparia (KCHSC); [6],13%
same,KCHSC Obs,Kochia scoparia (KCHSC); Propoxycarbazone-Na 15 g ai/ha,25%
